Read-outs that look alike come from different tables or passages of the source.
Target: T1, human cathepsin S (CatS) (Homo sapiens, UniProt P25774)
T1 construct: made in house; host or cells: baculovirus system (insect cells)
Assay: Recombinant human cathepsin S (CatS) fluorogenic substrate inhibition assay
Type: biochemical
Experimental: Recombinant human cathepsin S (CatS) was expressed in the baculovirus system and purified in one step with a thiopropyl-sepharose column. […] The assay is run in 150 mM sodium acetate pH 5.0 containing 1.5 mM DTT and 150 mM NaCl. […] Measurements are taken every min for 20 min. The rate is calculated from the slope of the increase in fluorescence and the percent inhibition is calculated from this.

[1] = recombinant human CatS, 10 μM Z-Valine-Valine-Arginine-AMC, pH 5.0, average of results obtained, read-out: CatS IC50

T1 sequence (P25774 115-331): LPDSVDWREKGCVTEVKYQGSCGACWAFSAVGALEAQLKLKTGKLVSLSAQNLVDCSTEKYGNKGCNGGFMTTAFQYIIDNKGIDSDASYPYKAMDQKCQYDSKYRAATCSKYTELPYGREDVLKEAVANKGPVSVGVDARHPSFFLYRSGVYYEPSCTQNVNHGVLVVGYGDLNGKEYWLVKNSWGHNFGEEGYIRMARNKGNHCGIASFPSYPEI

SMILES	IC50 [1]	IC50
CS(=O)(=O)N1CCc2c(c(-c3ccc(C(F)(F)F)c(CNC(=O)CN4CCS(=O)(=O)CC4)c3)nn2CCCN2CCC(N3CCCC3=O)CC2)C1 [Example 162, 2-(1,1-Dioxo-1λ^6-thiomorpholin-4-yl)-N-[5-(5-methanesulfonyl-1-{3-[4-(2-oxo-pyrrolidin-1-yl)-piperidin-1-yl]-propyl}-4,5,6,7-tetrahydro-1H-pyrazolo[4,3-c]pyridin-3-yl)-2-trifluoromethyl-benzyl]-acetamide]	380 nM	
CC(C)=CC(=O)NCc1cc(-c2nn(CC(O)CN3CCN(c4c(Cl)cncc4Cl)CC3)c3c2CN(S(C)(=O)=O)CC3)ccc1C(F)(F)F (stereo not shown) [Example 265, 3-Methyl-but-2-enoic acid 5-(1-{3-[4-(3,5-dichloro-pyridin-4-yl)-piperazin-1-yl]-2-hydroxy-propyl}-5-methanesulfonyl-4,5,6,7-tetrahydro-1H-pyrazolo[4,3-c]pyridin-3-yl)-2-trifluoromethyl-benzylamide]	10 nM	
CS(=O)(=O)N1CCc2c(c(-c3ccc(C(F)(F)F)c(CNC(=O)c4ccc(Cl)s4)c3)nn2CC(O)CN2CCC(N3CCCC3=O)CC2)C1 (stereo not shown) [Example 6, 5-Chloro-thiophene-2-carboxylic acid 5-(1-{2-hydroxy-3-[4-(2-oxo-pyrrolidin-1-yl)-piperidin-1-yl]-propyl}-5-methanesulfonyl-4,5,6,7-tetrahydro-1H-pyrazolo[4,3-c]pyridin-3-yl)-2-trifluoromethyl-benzylamide]	30 nM	
COc1ccccc1C1CCN(CC(O)Cn2nc(-c3ccc(C(F)(F)F)c(CNC(=O)CC(C)C)c3)c3c2CCN(S(C)(=O)=O)C3)CC1 (stereo not shown) [Example 259, N-[5-(1-{2-Hydroxy-3-[4-(2-methoxy-phenyl)-piperidin-1-yl]-propyl}-5-methanesulfonyl-4,5,6,7-tetrahydro-1H-pyrazolo[4,3-c]pyridin-3-yl)-2-trifluoromethyl-benzyl]-3-methyl-butyramide]		20 nM
CS(=O)(=O)N1CCc2c(c(-c3ccc(C(F)(F)F)c(CNC(=O)c4ccc(F)cc4O)c3)nn2CC(O)CN2CCC(N3CCCC3=O)CC2)C1 (stereo not shown) [Example 104, 4-Fluoro-2-hydroxy-N-[5-(1-{2-hydroxy-3-[4-(2-oxo-pyrrolidin-1-yl)-piperidin-1-yl]-propyl}-5-methanesulfonyl-4,5,6,7-tetrahydro-1H-pyrazolo[4,3-c]pyridin-3-yl)-2-trifluoromethyl-benzyl]-benzamide]	60 nM	
Cn1cncc1C(=O)NCc1cc(-c2nn(CC(O)CN3CCC(N4CCCC4=O)CC3)c3c2CN(S(C)(=O)=O)CC3)ccc1C(F)(F)F (stereo not shown) [Example 133, 3-Methyl-3H-imidazole-4-carboxylic acid 5-(1-{2-hydroxy-3-[4-(2-oxo-pyrrolidin-1-yl)-piperidin-1-yl]-propyl}-5-methanesulfonyl-4,5,6,7-tetrahydro-1H-pyrazolo[4,3-c]pyridin-3-yl)-2-trifluoromethyl-benzylamide]	380 nM	
CS(=O)(=O)N1CCc2c(c(-c3ccc(C(F)(F)F)c(CNC(=O)/C=C/c4ccccc4)c3)nn2CC(O)CN2CCC(N3CCCC3=O)CC2)C1 (stereo not shown) [Example 55, N-[5-(1-{2-Hydroxy-3-[4-(2-oxo-pyrrolidin-1-yl)-piperidin-1-yl]-propyl}-5-methanesulfonyl-4,5,6,7-tetrahydro-1H-pyrazolo[4,3-c]pyridin-3-yl)-2-trifluoromethyl-benzyl]-3-phenyl-acrylamide]	320 nM	
CC(C)CC(=O)NCc1cc(-c2nn(CC(O)CN3CCC(N4CCOC4=O)CC3)c3c2CN(S(C)(=O)=O)CC3)ccc1C(F)(F)F (stereo not shown) [Example 252, N-[5-(1-{2-Hydroxy-3-[4-(2-oxo-oxazolidin-3-yl)-piperidin-1-yl]-propyl}-5-methanesulfonyl-4,5,6,7-tetrahydro-1H-pyrazolo[4,3-c]pyridin-3-yl)-2-trifluoromethyl-benzyl]-3-methyl-butyramide]	140 nM	
CS(=O)(=O)N1CCc2c(c(-c3ccc(Cl)c(NC(=O)c4ccc(C(F)(F)F)cc4)c3)nn2CCCN2CCN(c3cccc(Cl)c3)CC2)C1 [Example 233, N-[2-Chloro-5-(1-{3-[4-(3-chloro-phenyl)-piperazin-1-yl]-propyl}-5-methanesulfonyl-4,5,6,7-tetrahydro-1H-pyrazolo[4,3-c]pyridin-3-yl)-phenyl]-4-trifluoromethyl-benzamide]	830 nM	
Cc1coc(NCc2cc(-c3nn(CCCN4CCC(N5CCCC5=O)CC4)c4c3CN(S(C)(=O)=O)CC4)ccc2C(F)(F)F)n1 [Example 177, 1-{1-[3-(5-Methanesulfonyl-3-{3-[(4-methyl-oxazol-2-ylamino)-methyl]-4-trifluoromethyl-phenyl}-4,5,6,7-tetrahydro-pyrazolo[4,3-c]pyridin-1-yl)-propyl]-piperidin-4-yl}-pyrrolidin-2-one]	1660 nM	
CC(C)CC(=O)NCc1cc(-c2nn(CC(O)CN3CCC(N4CC(O)CC4=O)CC3)c3c2CN(S(C)(=O)=O)CC3)ccc1C(F)(F)F (stereo not shown) [Example 253, N-[5-(1-{2-Hydroxy-3-[4-(4-hydroxy-2-oxo-pyrrolidin-1-yl)-piperidin-1-yl]-propyl}-5-methanesulfonyl-4,5,6,7-tetrahydro-1H-pyrazolo[4,3-c]pyridin-3-yl)-2-trifluoromethyl-benzyl]-3-methyl-butyramide]	90 nM	
CS(=O)(=O)N1CCc2c(c(-c3ccc(C(F)(F)F)c(CNC(=O)Cc4ccncc4)c3)nn2CCCN2CCC(N3CCCC3=O)CC2)C1 [Example 189, N-[5-(5-Methanesulfonyl-1-{3-[4-(2-oxo-pyrrolidin-1-yl)-piperidin-1-yl]-propyl}-4,5,6,7-tetrahydro-1H-pyrazolo[4,3-c]pyridin-3-yl)-2-trifluoromethyl-benzyl]-2-pyridin-4-yl-acetamide]	510 nM	
Cc1nn(C)c2sc(C(=O)NCc3cc(-c4nn(CC(O)CN5CCC(N6CCCC6=O)CC5)c5c4CN(S(C)(=O)=O)CC5)ccc3C(F)(F)F)cc12 (stereo not shown) [Example 123, 1,3-Dimethyl-1H-thieno[2,3-c]pyrazole-5-carboxylic acid 5-(1-{2-hydroxy-3-[4-(2-oxo-pyrrolidin-1-yl)-piperidin-1-yl]-propyl}-5-methanesulfonyl-4,5,6,7-tetrahydro-1H-pyrazolo[4,3-c]pyridin-3-yl)-2-trifluoromethyl-benzylamide]	180 nM	
